Experimental data: PubChem BioAssay (NCI)
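Five compound concentrations were applied to cells in 96-well plates for 48 hours; endpoints were derived by simple linear interpolation of the resulting dose-response curve. The concentration for 50% growth inhibition is given as GI50. TGI: concentration producing complete growth inhibition.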

Legend:
Test in all cases: NCI tumour cell line growth inhibition, 48 h
MALME-3M melanoma = tested on: MALME-3M melanoma
MOLT-4 leukemia = tested on: MOLT-4 leukemia
NCI-H226 lung = tested on: NCI-H226 lung
NCI-H23 lung = tested on: NCI-H23 lung
OVCAR-3 ovarian = tested on: OVCAR-3 ovarian
OVCAR-4 ovarian = tested on: OVCAR-4 ovarian
OVCAR-5 ovarian = tested on: OVCAR-5 ovarian
SF-268 CNS = tested on: SF-268 CNS
SF-539 CNS = tested on: SF-539 CNS
UACC-62 melanoma = tested on: UACC-62 melanoma

SMILES	TGI (MALME-3M melanoma) [µM]	TGI (MOLT-4 leukemia) [µM]	TGI (NCI-H226 lung) [µM]	TGI (NCI-H23 lung) [µM]	TGI (OVCAR-3 ovarian) [µM]	TGI (OVCAR-4 ovarian) [µM]	TGI (OVCAR-5 ovarian) [µM]	TGI (SF-268 CNS) [µM]	TGI (SF-539 CNS) [µM]	TGI (UACC-62 melanoma) [µM]	GI50 (MALME-3M melanoma) [µM]	GI50 (MOLT-4 leukemia) [µM]	GI50 (NCI-H226 lung) [µM]	GI50 (NCI-H23 lung) [µM]	GI50 (OVCAR-3 ovarian) [µM]	GI50 (OVCAR-4 ovarian) [µM]	GI50 (OVCAR-5 ovarian) [µM]	GI50 (SF-268 CNS) [µM]	GI50 (SF-539 CNS) [µM]	GI50 (UACC-62 melanoma) [µM]
NCc1nnn(Cc2ccccc2)c1N	> 100	> 100	> 100	> 100	> 100	> 100	> 100	> 100	> 100	> 100										
Nc1nc2nc[nH]c2c(=O)[nH]1	> 100		> 100	> 100	> 100	> 100	> 100	> 100	> 100	> 100										
CCCc1nc2c(C)cc(-c3nc4ccccc4n3C)cc2n1Cc1ccc(-c2ccccc2C(=O)O)cc1	> 100	> 100	> 100	> 100	37.3	> 100	> 100	> 100	> 100	> 100	45.9	32.4	32.4	51.5	14.7	50.6	> 100	44.1	46.5	22.4
O=C(/C=C\c1ccc(Cl)cc1Cl)c1cccs1	42.9	> 100	51.3	44	89.7		41.3	53.3	36.5	28.3										
COc1ccc(/C(C)=N/OC(=O)c2c(-c3ccccc3Cl)noc2C)cc1CN1CCOCC1	43.7	> 100	> 100	> 100	68.4	> 100	45.9	> 100	56.7	30										
Nc1ccn(C2CC(CO)C(O)C2O)c(=O)n1 (configuration not stated)	> 57.7	> 57.7	> 57.7		> 57.7	> 57.7		> 57.7	> 57.7	> 57.7										
COc1ccc(/C=C2\CCC(C)(CN(C)C)C2=O)cc1 (configuration not stated)	> 100	> 100	> 100	> 100	> 100	> 100	> 100	> 100	> 100	> 100										
C1=Cc2nc1c(-c1ccncc1)c1ccc([n-]1)c(-c1ccncc1)c1nc(c(-c3ccncc3)c3ccc([n-]3)c2-c2ccncc2)C=C1.[Zn+2]	> 100	> 100	> 100	> 100	> 100	> 100	> 100	> 100	> 100	> 100										
NS(=O)(=O)c1ccc(CCN=C=S)cc1	5.35	> 100	8.52	7.54	3.13	4.15	3.78	10.1	3.85	3.59	2.22	3.05	2.84	2.62	1.7	1.9	1.85	2.83	1.87	1.81
COc1ccc(-c2nc(-c3nc4ccc(OC)cc4[nH]3)cc3c2[nH]c2ccccc23)cc1	> 100	> 100	> 100	> 100	> 100	> 100	> 100	> 100	> 100	> 100	27.5	1.98	4.37	5.8	3.51	> 100	> 100	4.9	9.29	2.75
COC(=O)C1=C(CO)C2C=CC1C2 (configuration not stated)	> 100	> 100	> 100	> 100	> 100	> 100	> 100	> 100	> 100	> 100										
CCOC(=O)c1c(C(F)(F)F)n([O-])c2ccc(OC)cc2[n+]1=O	30.9	17.5	36	26.6	44.8	> 100	48.6	72.5	27	12	2.83	4	4.07	3.68	4.31	5.39	5.49	4.65	7.97	2.69
Nc1c(-c2ccc(Cl)cc2Cl)[n+]([O-])c2ccccc2[n+]1[O-]	> 100	> 100	> 100	> 100	> 100	> 100	> 100	> 100	> 100	> 100										
O=C(COc1ccccc1)NS(=O)(=O)c1ccccc1	> 100	> 100	> 100	> 100	> 100	> 100	> 100	> 100	> 100	> 100										
COc1cc(C(=O)c2cc3c(cc2C)OCO3)cc(OC)c1OC		> 100	> 100	> 100		> 100	> 100	> 100	0.376	> 100		0.117	0.554	0.319	0.0765	0.83	0.439	0.36	0.0617	0.247
CSc1nc2sc3cc(Cl)ccc3n2c(=N)c1C#N	> 100	> 23.6	> 100	> 100	> 100	> 100	> 100	> 100	> 100	> 100	14.7	2.2	12.8	> 52	11.8	8.9	> 62.7	14	15.2	17.7
Cc1cc(Cl)ccc1N=C1NC(=O)C(CC(=O)Nc2ccc(Cl)cc2Cl)S1 (configuration not stated)	> 100	> 100		> 100	> 100	> 100	> 100	> 100	> 100	> 100										
COc1ccc(/C=C/c2n[nH]c3ccc(N4CCOC4=O)cc23)cc1	8.66	9.54	15.4	6.18	9.42	> 100	59.8	> 100	3.33	6.83	4.3	1.46	2.44	1.79	2.97	5.06	3.16	3.64	0.99	2.6

SMILES	TGI (MALME-3M melanoma) [µM]	TGI (MOLT-4 leukemia) [µM]	TGI (NCI-H226 lung) [µM]	TGI (NCI-H23 lung) [µM]	TGI (OVCAR-3 ovarian) [µM]	TGI (OVCAR-4 ovarian) [µM]	TGI (OVCAR-5 ovarian) [µM]	TGI (SF-268 CNS) [µM]	TGI (SF-539 CNS) [µM]	TGI (UACC-62 melanoma) [µM]	GI50 (MALME-3M melanoma) [µM]	GI50 (MOLT-4 leukemia) [µM]	GI50 (NCI-H226 lung) [µM]	GI50 (NCI-H23 lung) [µM]	GI50 (OVCAR-3 ovarian) [µM]	GI50 (OVCAR-4 ovarian) [µM]	GI50 (OVCAR-5 ovarian) [µM]	GI50 (SF-268 CNS) [µM]	GI50 (SF-539 CNS) [µM]	GI50 (UACC-62 melanoma) [µM]
CC1C=CC(=O)C(n2cc(F)c(=O)[nH]c2=O)O1 (configuration not stated)	35.5	48.7		40.7	31.2	34.3			31.2	31.7										
O=C(Nc1c(O)[nH]c(=S)[nH]c1=O)c1ccc2ccccc2n1	> 100	> 100	> 100	> 100	> 100	> 100		> 100	> 100	> 100										
O=C1CCC2(CC1)SCCCS2	> 100		> 100	> 100	> 100	> 100	> 100	> 100		> 100										
COc1cc2nc(Nc3cccc(F)c3)nc(Nc3cc(C)[nH]n3)c2cc1OC	3.55	5.76		3.27	3.41	3.49	3.2	3.46	3.18	3.66	1.86	1.89		1.69	1.82	1.68	1.76	1.82	1.78	1.85
C=C(C)[C@@H]1CC[C@]2(C)[C@H](CC[C@@H]3[C@H]4[C@H]5OC[C@@]4(CCC5(C)C)CC[C@]32C)[C@@]1(C)CCCN	3.45	7.86		3.53	3.07	3.78	3.1	3.8	3.22	3.12	1.77	2.79		1.77	1.68	2.04	1.71	1.81	1.78	1.71
Nc1c(C(=O)Nc2ccccc2Cl)sc2nc3c(cc12)CCCCCC3	9.33		24.5	> 100	12.7	5.1	> 100	16.7	8.12	> 100	2.62		3.76	8.83	3.23	2.11	6.88	3.44	2.65	3.32
CCOC(=O)/C(=C/c1ccc(C#N)cc1)N(CC)CC	> 100	> 100	> 100	> 100		> 100	> 100	> 100	> 100	> 100										
CN(C)CCNC(=O)c1cccc2[nH]c(-c3ccccc3)nc12		59.6	39.5	32.6	50.3	82.5	34.6	46.3	26.2	32.6										
NCCNC(=S)S	30	77.9	> 100	> 100	> 100	> 100	> 100	31.1		> 100										
COc1ccc(C2=NN(C(C)=O)C(c3cn(-c4ccccc4)nc3-c3ccc(Cl)cc3)C2)cc1 (configuration not stated)		> 100	> 100	> 100	> 100		> 100	> 100	> 100	> 100		> 100	> 100	> 100	> 100		> 100	6.2	25.4	> 100
Cc1ccc(Cl)c(NC(=O)C(=O)C(C(=O)c2ccncc2)C2OC(=O)c3ccccc32)c1 (configuration not stated)	> 100		> 100	> 100		> 100		> 100	> 100	> 100										
O=C(Nc1nc2ncn(CC(COc3ccccc3)OC(=O)c3ccccc3)c2c(=O)[nH]1)c1ccccc1 (configuration not stated)	> 100	> 100	> 100		> 100	> 100	> 100		> 100	> 100										
COc1ccc2c(c1)CC[C@@H]1[C@@H]2CC[C@]2(C)C(c3ccco3)=C(C=O)C[C@@H]12		38.6	63.5	69.4	12.4	> 100	94.1	> 100	40.6	16.3		7.27	21.6	12.7	2.08	20	30.5	13.6	20	3.82
Cc1[nH]c(=O)[nH]c(=O)c1CO	> 100	> 100		> 100	> 100		> 100	> 100	> 100	> 100	> 100	> 100		> 100	> 100		> 100	> 100	> 100	> 100
COc1ccc2c(c1)OC[C@@H]1c3cc4c(cc3O[C@H]21)OCO4	> 100	> 100	> 100	> 100	> 100	> 100	> 100	> 100	> 100											
Cc1ccccc1CN1CC=c2ccccc2=N1	> 100		> 100	> 100	> 100	> 100	> 100	> 100	> 100	> 100										
CCC(C)C(NC(=O)C1CCCN1C(=O)C(NC(=O)C(C)N)C(C)C)C(N)=O (configuration not stated)	> 100	> 100	> 100		> 100	> 100		> 100	> 100	> 100	52.3	> 100	> 100		> 100	> 100		> 100		> 100
O=C1C(=O)C(Br)(Br)C(Br)=C1Br	35.4	63			29.1	69.6	26.8		33.4	33.6										
